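Results reflect a 48-hour exposure of cells in 96-well plates to compound at five concentrations. Here, GI50 denotes the concentration required for 50% inhibition of growth. Definition used: TGI = concentration required for complete inhibition of growth.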 Where only a bound is given, the exact number is not on record here.

Test systems include HCC-2998 colon; HL-60(TB) leukemia; LOX IMVI melanoma; MOLT-4 leukemia; OVCAR-8 ovarian; RPMI-8226 leukemia; SK-MEL-5 melanoma; SN12C renal; SNB-75 CNS; UACC-257 melanoma.
Common to all, as to assay: NCI-60 cell line screen, 48 h

Take `CCOC(=O)C(NC(=O)c1nc[nH]c1[N+](=O)[O-])C(C)C` (centres undefined): the TGI with HCC-2998 colon, in the test with HL-60(TB) leukemia, in the test on LOX IMVI melanoma, in the test with MOLT-4 leukemia, in the test with OVCAR-8 ovarian and in the test on RPMI-8226 leukemia was above 100 µM each time. Further, the TGI with SK-MEL-5 melanoma, in the test with SN12C renal, with SNB-75 CNS and in the test on UACC-257 melanoma was above 100 µM each time.

Turning to `Cc1ccccc1C(=O)N1CCN(C(=O)c2ccccc2C)CC1`, the TGI in the test with HCC-2998 colon, in the test with HL-60(TB) leukemia, in the test with LOX IMVI melanoma, in the test with MOLT-4 leukemia, in the test with OVCAR-8 ovarian and with RPMI-8226 leukemia was above 100 µM in each case. Besides, the TGI in the test on SK-MEL-5 melanoma, in the test on SN12C renal, with SNB-75 CNS and in the test with UACC-257 melanoma was above 100 µM each time.

As for `O=c1c(F)cn(Cc2ccccc2CCl)c(=O)n1Cc1ccccc1CCl`, the GI50 in the test on HCC-2998 colon was 2.09 µM; in the test on HL-60(TB) leukemia, 1.51 µM; in the test with LOX IMVI melanoma, 1.23 µM; in the test with MOLT-4 leukemia, 1.77 µM; in the test on OVCAR-8 ovarian it was 0.977 µM; in the test on RPMI-8226 leukemia, 0.795 µM. The GI50 in the test on SK-MEL-5 melanoma is 1.65 µM; with SN12C renal, 2.75 µM; in the test with SNB-75 CNS it was 1.97 µM. Besides, the TGI came to 4.47 µM with HCC-2998 colon; 3.63 µM in the test with HL-60(TB) leukemia; 2.78 µM in the test on LOX IMVI melanoma; 4.69 µM in the test with MOLT-4 leukemia; 2.99 µM with OVCAR-8 ovarian; 8.46 µM with RPMI-8226 leukemia. In addition, the TGI in the test on SK-MEL-5 melanoma stood at 3.44 µM; in the test on SN12C renal, 10.4 µM; with SNB-75 CNS, 6.36 µM; in the test with UACC-257 melanoma it was 2.44 µM.

`O=C(Nc1ccc(Cl)c(Cl)c1)NS(=O)(=O)c1cnccc1Oc1ccc(F)cc1`: the GI50 with HCC-2998 colon is 4.43 µM; with HL-60(TB) leukemia it was 2.12 µM; with LOX IMVI melanoma, 3.24 µM; in the test on MOLT-4 leukemia, 2.68 µM; in the test with OVCAR-8 ovarian, 4.82 µM; with RPMI-8226 leukemia, 2.01 µM. For the same molecule, the GI50 in the test on SK-MEL-5 melanoma is 3.63 µM; with SN12C renal, 3.38 µM; with SNB-75 CNS it was 3.85 µM; in the test on UACC-257 melanoma, 4.72 µM. Besides, the TGI with HCC-2998 colon is 38.1 µM; in the test with HL-60(TB) leukemia, 7.19 µM; in the test on LOX IMVI melanoma it was 53.1 µM; in the test with MOLT-4 leukemia it was 8.58 µM; in the test with OVCAR-8 ovarian it was above 100 µM; with RPMI-8226 leukemia, 5.36 µM. In addition, the TGI in the test on SK-MEL-5 melanoma was 13.5 µM; in the test on SN12C renal, 15.4 µM; with SNB-75 CNS, above 100 µM; in the test on UACC-257 melanoma it was 24.4 µM.

As for `CSC(=NCCc1c[nH]c2ccccc12)NC#N`, the TGI in the test with HCC-2998 colon, with HL-60(TB) leukemia, in the test with LOX IMVI melanoma, with MOLT-4 leukemia, with OVCAR-8 ovarian and in the test on RPMI-8226 leukemia was above 100 µM throughout. Moreover, the TGI in the test on SK-MEL-5 melanoma, in the test on SN12C renal, in the test on SNB-75 CNS and in the test with UACC-257 melanoma was above 100 µM in each case.

In the case of `Cc1cc(N(CCC#N)CCC#N)ccc1/C=C(\NC(=O)/C=C/c1ccccc1)C(=O)NN`, the TGI with HCC-2998 colon, with HL-60(TB) leukemia, in the test on LOX IMVI melanoma, in the test with MOLT-4 leukemia, with OVCAR-8 ovarian and in the test with RPMI-8226 leukemia was above 100 µM in each case. The TGI in the test with SK-MEL-5 melanoma was above 100 µM; in the test with SN12C renal it was above 100 µM; in the test with SNB-75 CNS it was above 62.9 µM; with UACC-257 melanoma, above 100 µM.

In the case of `C=C1C(=O)O[C@H]2[C@H]1CC/C(C=Nc1c(N)cc(C(F)(F)F)cc1Br)=C\CC[C@@]1(C)O[C@@H]21`, the GI50 was 1.83 µM in the test with HCC-2998 colon; 0.397 µM in the test on HL-60(TB) leukemia; 1.4 µM in the test with LOX IMVI melanoma; 0.624 µM in the test on MOLT-4 leukemia; 2.34 µM with OVCAR-8 ovarian; 0.399 µM in the test on RPMI-8226 leukemia. In addition, the GI50 was 1.35 µM in the test on SK-MEL-5 melanoma, 1.5 µM in the test on SN12C renal, 1.27 µM with SNB-75 CNS and 1.64 µM in the test on UACC-257 melanoma. Also, the TGI was 3.52 µM in the test with HCC-2998 colon; 2.48 µM in the test on HL-60(TB) leukemia; 2.74 µM with LOX IMVI melanoma; above 100 µM in the test with MOLT-4 leukemia; 9.03 µM in the test with OVCAR-8 ovarian; 2.37 µM in the test on RPMI-8226 leukemia. In addition, the TGI with SK-MEL-5 melanoma was 2.64 µM; with SN12C renal, 3.51 µM; in the test with SNB-75 CNS, 3.67 µM; in the test on UACC-257 melanoma it was 3.61 µM.

Regarding `C=C1C(=O)O[C@H]2[C@H]1CC/C(COC(=O)NCC(C)c1ccc(CC(C)C)cc1)=C\CC[C@@]1(C)O[C@@H]21` (some centres undefined), the GI50 with HCC-2998 colon was 2.17 µM; in the test with HL-60(TB) leukemia, 0.786 µM; in the test on LOX IMVI melanoma, 0.506 µM; in the test on MOLT-4 leukemia, 0.974 µM; in the test on OVCAR-8 ovarian, 1.94 µM; in the test with RPMI-8226 leukemia, 0.681 µM. Besides, the GI50 with SK-MEL-5 melanoma was 3.97 µM; in the test with SN12C renal, 1.06 µM; with SNB-75 CNS it was 1.21 µM; in the test with UACC-257 melanoma, 5.01 µM. Also, the TGI was determined as 6.72 µM with HCC-2998 colon; 2.83 µM with HL-60(TB) leukemia; 1 µM in the test on LOX IMVI melanoma; 3.05 µM in the test with MOLT-4 leukemia; 6.87 µM in the test on OVCAR-8 ovarian; 1.9 µM in the test with RPMI-8226 leukemia. The TGI amounted to 8.07 µM in the test with SK-MEL-5 melanoma, 4.14 µM with SN12C renal, 5.48 µM in the test on SNB-75 CNS and 9.89 µM in the test on UACC-257 melanoma.

For `CC(C)(C)C(=O)[CH-]C(=O)C(C)(C)C.CC(C)(C)C(=O)[CH-]C(=O)C(C)(C)C.CN(C)c1ccc([O-])cc1.CN(C)c1ccc([O-])cc1.[Ti+4]`, the GI50 was above 100 µM with HCC-2998 colon; above 100 µM in the test with HL-60(TB) leukemia; above 100 µM in the test on LOX IMVI melanoma; above 100 µM with MOLT-4 leukemia; above 100 µM with OVCAR-8 ovarian; 52.7 µM with RPMI-8226 leukemia. The GI50 was above 100 µM in the test on SK-MEL-5 melanoma, above 100 µM with SN12C renal, 26.1 µM in the test on SNB-75 CNS and above 100 µM in the test with UACC-257 melanoma. The TGI with HCC-2998 colon, in the test on HL-60(TB) leukemia, with LOX IMVI melanoma, in the test on MOLT-4 leukemia, with OVCAR-8 ovarian and in the test on RPMI-8226 leukemia was above 100 µM in each case. The TGI in the test on SK-MEL-5 melanoma, with SN12C renal, in the test with SNB-75 CNS and in the test on UACC-257 melanoma was above 100 µM each time.

(Values after PubChem BioAssay (NCI).)
